Assay results: PubChem BioAssay (NCI)
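Method: 48-hour compound exposure of cells in 96-well plates, five concentrations, linear interpolation of endpoints. At the GI50, growth is halved. TGI is the concentration that stops growth completely.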

Experiments:
Experiment in all cases: growth of human tumour cells (NCI), 48 h
786-0 renal = tested on: 786-0 renal
MALME-3M melanoma = tested on: MALME-3M melanoma
SK-OV-3 ovarian = tested on: SK-OV-3 ovarian
TK-10 renal = tested on: TK-10 renal
HS 578T breast = tested on: HS 578T breast
RXF 393 renal = tested on: RXF 393 renal
SK-MEL-2 melanoma = tested on: SK-MEL-2 melanoma
COLO 205 colon = tested on: COLO 205 colon
UACC-257 melanoma = tested on: UACC-257 melanoma

Structure (SMILES) | TGI (786-0 renal) [µM] | TGI (MALME-3M melanoma) [µM] | TGI (SK-OV-3 ovarian) [µM] | TGI (TK-10 renal) [µM] | TGI (HS 578T breast) [µM] | TGI (RXF 393 renal) [µM] | TGI (SK-MEL-2 melanoma) [µM] | TGI (COLO 205 colon) [µM] | TGI (UACC-257 melanoma) [µM] | GI50 (MALME-3M melanoma) [µM] | GI50 (SK-OV-3 ovarian) [µM] | GI50 (TK-10 renal) [µM] | GI50 (HS 578T breast) [µM] | GI50 (RXF 393 renal) [µM] | GI50 (SK-MEL-2 melanoma) [µM] | GI50 (COLO 205 colon) [µM] | GI50 (UACC-257 melanoma) [µM]
CN(C)c1cc[n+](-c2nc(/N=C(\[O-])C(F)(F)F)nc3c2ncn3C2CC(O)C(CO)O2)cc1 (centres undefined) | > 100 | > 100 | > 100 | > 100 | > 100 | > 100 | > 100 | > 100 | – | – | – | – | – | – | – | – | –
O=C(OCC(Cl)(Cl)Cl)O[C@@H]1CCCC1(c1ccccc1)c1ccccc1 | > 100 | – | > 100 | > 100 | – | > 100 | – | > 100 | > 100 | – | – | – | – | – | – | – | –
COc1cc(C2c3cc4c(cc3OC(NCCO)C2C)OCO4)cc(OC)c1OC (centres undefined) | > 100 | > 100 | > 100 | > 96.3 | > 100 | > 100 | > 100 | 12.3 | > 100 | – | – | – | – | – | – | – | –
C[C@@H]1S[C@H](c2c(Cl)cccc2Cl)N2Cc3ccccc3N=C12 | > 100 | – | > 100 | > 100 | > 100 | > 100 | > 100 | > 100 | > 100 | – | – | – | – | – | – | – | –
CC1=NC(=Cc2ccc([N+](=O)[O-])cc2)C(=O)N1n1c(-c2ccccc2)nc2ccccc2c1=O | > 100 | > 100 | > 100 | > 100 | > 100 | – | – | > 100 | > 100 | – | – | – | – | – | – | – | –
CC(=O)N(O)c1ccc(-c2nc3ccccc3s2)cc1 | > 100 | 88.9 | – | > 100 | > 100 | > 100 | > 100 | > 100 | > 100 | – | – | – | – | – | – | – | –
COc1ccc(C(C2=C(O)COC2=O)c2cc3c(cc2O)OCO3)cc1OC (centres undefined) | > 100 | > 100 | > 100 | > 100 | > 100 | > 100 | > 100 | > 100 | > 100 | – | – | – | – | – | – | – | –
O=c1cnn(CCOCP(=O)(O)O)c(=O)[nH]1 | – | > 100 | – | > 100 | > 100 | > 100 | > 100 | > 100 | > 100 | – | – | – | – | – | – | – | –
COc1cc(N(Cc2ccc3oc(=O)c(-c4ccccc4)nc3c2)Cc2ccc3oc(=O)c(-c4ccccc4)nc3c2)cc(OC)c1OC | > 10 | – | > 10 | > 10 | > 10 | > 10 | > 10 | > 10 | > 10 | – | – | – | – | – | – | – | –
Cc1ccccc1NC(=O)Cc1csc2[n+]1C(=O)/C(=C/c1ccc([N+](=O)[O-])cc1)S2 | > 100 | – | > 100 | 56.3 | – | – | > 100 | > 100 | > 100 | – | – | – | – | – | – | – | –
O=C(CCc1ccccc1)ON1C(=S)C(c2ccccc2)(c2ccccc2)N=C1Sc1ccccc1 | > 100 | > 100 | > 100 | > 100 | > 100 | > 100 | > 100 | > 100 | > 100 | – | – | – | – | – | – | – | –
Oc1[nH]c2ccccc2c1/C=c1/cc2c(c(-c3ccc(F)cc3)n1)=Nc1ccccc1-2 | – | 2.26 | 3.15 | 3.71 | 3.28 | 1.96 | 1.34 | 1.27 | 2.88 | 0.843 | 0.848 | 1.44 | 0.528 | 0.634 | 0.327 | 0.316 | 0.714
CCOC(=O)C1=C(C)N(c2ccc(OC)cc2)C2(O)C=CC(=O)C3=C(O)c4ccccc4C(=O)C312 (centres undefined) | – | 1.17 | 31.1 | 27.4 | 33.5 | – | 31 | 24 | 31.2 | – | – | – | – | – | – | – | –
O=C(NNc1nc(-c2ccccc2)cs1)C(F)(F)F | > 100 | > 100 | > 100 | – | 52.2 | > 100 | > 100 | > 100 | > 100 | – | – | – | – | – | – | – | –
NC(Cc1ccc(S(=O)(=O)O)cc1)C(=O)NC(Cc1ccc(S(=O)(=O)O)cc1)C(=O)O (centres undefined) | > 100 | > 100 | – | > 100 | > 100 | > 100 | > 100 | > 100 | > 100 | – | – | – | – | – | – | – | –
CCOC(=O)Cc1nc2c(N)ncnc2n1C1OC(COC(C)=O)C(OC(C)=O)C1OC(C)=O (centres undefined) | > 100 | > 100 | > 100 | > 100 | > 100 | – | – | > 100 | > 100 | – | – | – | – | – | – | – | –
C(=C\N1CCCCC1)/c1nnnn1-c1ccccc1 | > 100 | > 100 | 63.3 | > 100 | 49.4 | 56.6 | – | > 100 | > 100 | – | – | – | – | – | – | – | –
CC(C)C1N(C)c2ccc(Cl)cc2[C@H]2c3ccccc3CCN12 (some centres undefined) | > 100 | – | > 100 | > 100 | 82.1 | > 100 | 74.1 | > 100 | 90.3 | – | – | – | – | – | – | – | –
Cc1nc2ccccc2c(/C=C/c2ccc(Cl)cc2)c1C(=O)/C=C/c1ccc(Cl)cc1 | – | – | – | – | 5.97 | 3 | – | – | – | – | – | – | 2.06 | 1.52 | – | – | –

Structure (SMILES) | TGI (786-0 renal) [µM] | TGI (MALME-3M melanoma) [µM] | TGI (SK-OV-3 ovarian) [µM] | TGI (TK-10 renal) [µM] | TGI (HS 578T breast) [µM] | TGI (RXF 393 renal) [µM] | TGI (SK-MEL-2 melanoma) [µM] | TGI (COLO 205 colon) [µM] | TGI (UACC-257 melanoma) [µM] | GI50 (MALME-3M melanoma) [µM] | GI50 (SK-OV-3 ovarian) [µM] | GI50 (TK-10 renal) [µM] | GI50 (HS 578T breast) [µM] | GI50 (RXF 393 renal) [µM] | GI50 (SK-MEL-2 melanoma) [µM] | GI50 (COLO 205 colon) [µM] | GI50 (UACC-257 melanoma) [µM]
Cc1nc2c(=S)n(C)ncc2[nH]1 | > 100 | 69.7 | > 100 | > 100 | – | – | > 100 | > 100 | > 100 | – | – | – | – | – | – | – | –
CN(C)CCNC(=O)c1cccc2c1Oc1c(cccc1[N+](=O)[O-])O2 | 3.98 | 3.88 | – | 6.08 | 6.71 | 4.94 | 3.06 | 4.28 | 6.34 | – | – | – | – | – | – | – | –
CCN(CC)c1ccc2cc(C(=O)Nc3ccccn3)c(=N)oc2c1 | > 100 | > 100 | > 100 | – | 88.5 | > 100 | 95.7 | > 100 | > 100 | – | – | – | – | – | – | – | –
O=C(NC(=S)NC(=O)c1cc(O)c(O)c(O)c1)c1cc(O)c(O)c(O)c1 | 40.2 | – | > 100 | 61.3 | – | 41.5 | 40.4 | 46.7 | 44.8 | – | – | – | – | – | – | – | –
COc1ccc2c(OCc3nnc4ccc(-c5ccccc5)nn34)ccnc2c1 | – | > 100 | > 100 | > 100 | > 100 | – | > 100 | – | > 100 | > 100 | > 100 | > 100 | > 100 | – | > 91.1 | – | > 100
CN(C)c1cccc(NC2=NCCO2)c1 | > 100 | > 100 | – | > 100 | > 100 | > 100 | 48.7 | 41.3 | > 100 | – | – | – | – | – | – | – | –
C=CCOCn1cc(C)c(=O)[nH]c1=O | > 100 | > 100 | > 100 | > 100 | > 100 | – | – | > 100 | > 100 | – | – | – | – | – | – | – | –
COc1ccc(/C=C/C2=NN(c3cccc(S(=O)(=O)O)c3)C3(C2)SCC(=O)N3c2nc3ccccc3s2)cc1 (centres undefined) | > 100 | > 100 | – | > 100 | > 100 | > 100 | > 100 | > 100 | > 100 | – | – | – | – | – | – | – | –
C[C@H](C/C=C/C(C)(C)O)[C@H]1CC[C@@]2(C)[C@@H]3CC[C@H]4C(C)(C)[C@@H](O)CC[C@@]45C[C@@]35CC[C@]12C | 46.5 | – | > 100 | 27.1 | 27.8 | – | 37.7 | – | 33.2 | – | – | – | – | – | – | – | –
COc1ccc(-n2sc3ncccc3c2=O)cc1 | 32.3 | 30.9 | > 100 | 33.5 | 62.8 | – | > 100 | 35 | 34.2 | – | – | – | – | – | – | – | –
CC(C)(C)N(Cc1ccc2c(c1)OCO2)C(=O)/C=C\Sc1ccccc1 | > 100 | – | > 100 | > 100 | – | – | > 100 | > 100 | > 100 | – | – | – | – | – | – | – | –
CSC1NC(c2ccc(Cl)cc2)=C(C#N)C(=O)N1C1OCC(OC(C)=O)C(OC(C)=O)C1OC(C)=O (centres undefined) | > 100 | > 100 | > 100 | > 100 | > 100 | – | – | > 100 | > 100 | – | – | – | – | – | – | – | –
COC(=O)c1ccc(Nc2nc3nc[nH]c3c(=O)[nH]2)cc1 | > 100 | > 100 | > 100 | > 100 | > 100 | – | > 100 | > 100 | > 100 | – | – | – | – | – | – | – | –
C[C@H]1S[C@H](c2c(Cl)cccc2Cl)N2Cc3ccccc3N=C12 | 23 | – | 38.3 | 41.9 | 42.3 | 30.4 | 26.1 | 25.2 | 45.6 | – | – | – | – | – | – | – | –
CCc1ccccc1NNc1cc(=O)[nH]c(=O)[nH]1 | 32.5 | – | 64.8 | – | 68.6 | 40.1 | 56.2 | 34.5 | 35.9 | – | – | – | – | – | – | – | –
COc1ccc2oc(=O)c(-c3csc(C)n3)cc2c1 | > 100 | – | 87.3 | 64.7 | 79.3 | > 100 | > 100 | > 100 | > 100 | – | – | – | – | – | – | – | –
Clc1ccc(OCc2nn3c(CCc4nnc5sc(COc6ccc(Cl)cc6)nn45)nnc3s2)cc1 | > 100 | – | > 100 | 80.7 | > 100 | 61.2 | 87.8 | – | 82.9 | – | – | – | – | – | – | – | –
CCOC(=O)C1=COC(C)(CCc2ccccc2)CC1=O (centres undefined) | > 100 | – | > 100 | > 100 | > 100 | > 100 | > 100 | > 100 | > 100 | – | – | – | – | – | – | – | –
